From patent US4311698A, “Aminoacid derivatives of cephalosporin compounds” (priority 1980, dated 1982) come the findings set out here.

Type in all cases: cell-based
Experiment [1] has as its system Entero Cloac. IM 11. Put plainly: In vitro minimal inhibitory concentration, Entero Cloac. IM 11.
In experiment [2] the test system is Klebs. Pneum. MGH 2. In words: In vitro minimal inhibitory concentration, Klebs. Pneum. MGH 2.
The subject of experiment [3] is Serr. Mar. IMM 16. In words: In vitro minimal inhibitory concentration, Serr. Mar. IMM 16.
The test system of experiment [4] is Pseudomonas BRK 12-4-4. In words: In vitro minimal inhibitory concentration, Pseudomonas BRK 12-4-4. Conditions: BRK1244.
For experiment [5], the system named is Strep. fec. MGH 2. Put plainly: In vitro minimal inhibitory concentration, Strep. fec. MGH 2.
Experiment [6] relates to Pseudomonas #28. In words: In vitro minimal inhibitory concentration, Pseudomonas #28. Conditions: read-out: Minimal Inhibitory Concentration.
Experiment [7] concerns Staph S 18713. Put plainly: In vitro minimal inhibitory concentration, Staph S 18713.
Experiment [8] relates to E. Coli. Brig. In words: In vitro minimal inhibitory concentration, E. Coli. Brig. Conditions: Escherichia coli.
The test system of experiment [9] is Staph UC76. In words: In vitro minimal inhibitory concentration, Staph UC76.
In experiment [10] the test system is Pseudomonas UI 18. In words: In vitro minimal inhibitory concentration, Pseudomonas UI 18. Conditions: UI18.
The subject of experiment [11] is E. Coli. Vogel. Put plainly: In vitro minimal inhibitory concentration, E. Coli. Vogel. Conditions: Escherichia coli.
The test system of experiment [12] is Prot Vulg. In words: In vitro minimal inhibitory concentration, Prot Vulg.

In brackets after ≈: the same amount, converted by molar mass. Where two headings read alike, the source gives them in different places. Bounds are passed on as bounds.

With `CC(=O)N[C@@H](C)C(=O)Nc1ccc(-c2ccc(C(=O)N[C@@H](C(=O)NC3C(=O)N4C(C(=O)O)=C(COC(C)=O)CSC34)c3ccccc3)c(=O)[nH]2)cc1` (stereo partly drawn) [Example 5, N-[6-[4-(N-Acetyl-L-alanylamino)phenyl]-1,2-dihydro-2-oxonicotinyl]-6-[D-2-amino-2-phenylacetamido]-3-acetoxymethyl-3-cephem-4-carboxylic acid], the MIC in [1] came to 12.5 µg/mL (≈ 17.1 µM); in experiment [2], 12.5 µg/mL (≈ 17.1 µM); in experiment [3] it was 50 µg/mL (≈ 68.4 µM); in experiment [4], 12.5 µg/mL (≈ 17.1 µM); in experiment [5], 25 µg/mL (≈ 34.2 µM); in experiment [6] (Pseudomonas #28, in vitro), 6.3 µg/mL (≈ 8.62 µM). The MIC in experiment [7] turned out to be 1.6 µg/mL (≈ 2.19 µM); in experiment [8], 12.5 µg/mL (≈ 17.1 µM); in experiment [9], 0.8 µg/mL (≈ 1.09 µM); in experiment [10], 6.3 µg/mL (≈ 8.62 µM); in experiment [11], 1.6 µg/mL (≈ 2.19 µM); in [12], 25 µg/mL (≈ 34.2 µM).
Regarding `CC(=O)OCC1=C(C(=O)O)N2C(=O)C(NC(=O)[C@H](NC(=O)c3ccc(-c4ccc(NC(=O)C5CCCN5C(C)=O)cc4)[nH]c3=O)c3ccccc3)C2SC1` (mixture of isomers) [Example 17, N-[6-[4-(N-Acetyl-DL-prolylamino)phenyl]-1,2-dihydro-2-oxonicotinyl]-7-[D-2-amino-2-phenylacetamido]-3-acetoxymethyl-3-cephem-4-carboxylic acid], the MIC was determined as 25 µg/mL in experiment [1]; 12.5 µg/mL in experiment [2]; 50 µg/mL in experiment [3]; 25 µg/mL in [4]; 50 µg/mL in experiment [5]; 12.5 µg/mL in experiment [6] (Pseudomonas #28, in vitro). In addition, the MIC in experiment [7] is 3.1 µg/mL; in experiment [8], 25 µg/mL; in [9], 1.6 µg/mL; in experiment [10], 12.5 µg/mL; in experiment [11], 3.1 µg/mL; in experiment [12], 25 µg/mL.
For `CC(=O)N[C@@H](CCC(N)=O)C(=O)Nc1ccc(-c2ccc(C(=O)N[C@@H](C(=O)NC3C(=O)N4C(C(=O)O)=C(CSc5nnnn5CS(=O)(=O)O)CSC34)c3ccccc3)c(=O)[nH]2)cc1` (stereo partly drawn) [Example 42, N-[6-[4-(N-Acetyl-L-glutaminylamino)phenyl]-1,2-dihydro-2-oxonicotinyl]-7-[D-2-amino-2-phenylacetamido]-3-[[(1-sulfomethyl-1H-tetrazol-5-yl)thio]methyl]-3-cephem-4-carboxylic acid], the MIC was 6.3 µg/mL (≈ 6.82 µM) in experiment [1]; 3.1 µg/mL (≈ 3.36 µM) in [2]; 12.5 µg/mL (≈ 13.5 µM) in [3]; 6.3 µg/mL (≈ 6.82 µM) in experiment [4]; more than 50 µg/mL in experiment [5]; 12.5 µg/mL (≈ 13.5 µM) in experiment [6] (Pseudomonas). For the same molecule, the MIC turned out to be 12.5 µg/mL (≈ 13.5 µM) in experiment [7]; 6.3 µg/mL (≈ 6.82 µM) in experiment [8]; 6.3 µg/mL (≈ 6.82 µM) in experiment [9]; 6.3 µg/mL (≈ 6.82 µM) in experiment [10]; 0.8 µg/mL (≈ 0.866 µM) in [11]; 3.1 µg/mL (≈ 3.36 µM) in experiment [12].
For the molecule `CC(=O)NC(C)C(=O)Nc1ccc(-c2ccc(C(=O)N[C@@H](C(=O)NC3C(=O)N4C(C(=O)O)=C(CSc5nnc(C)s5)CSC34)c3ccccc3)c(=O)[nH]2)cc1` (mixture of isomers) [Example 22, N-[6-[4-(N-Acetyl-DL-alanylamino)phenyl]-1,2-dihydro-2-oxonicotinyl]-7-[D-2-amino-2-phenylacetamido]-3-[([4-methyl-1,3,4-thiadiazol-2-yl]thio)methyl]-3-cephem-4-carboxylic acid], the MIC worked out at 12.5 µg/mL in [1]; 3.1 µg/mL in experiment [2]; 25 µg/mL in experiment [3]; 12.5 µg/mL in experiment [4]; 12.5 µg/mL in experiment [5]; 12.5 µg/mL in experiment [6] (Pseudomonas #28, in vitro). Further, the MIC amounted to 6.3 µg/mL in experiment [7]; 6.3 µg/mL in experiment [8]; 0.4 µg/mL in experiment [9]; 12.5 µg/mL in experiment [10]; 1.6 µg/mL in [11]; 12.5 µg/mL in [12].
For `CC(=O)N[C@H](C)C(=O)Nc1ccc(-c2ccc(C(=O)N[C@@H](C(=O)NC3C(=O)N4C(C(=O)O)=C(COC(N)=O)CSC34)c3ccccc3)c(=O)[nH]2)cc1` (stereo partly drawn) [Example 24, N-[6-[4(N-Acetyl-D-alanylamino)phenyl]-1,2-dihydro-2-oxonicotinyl]-7-[D-2-amino-phenylacetamido]-3-carbamoyloxymethyl-3-cephem-4-carboxylic acid], the MIC is 25 µg/mL (≈ 34.2 µM) in [1]; 12.5 µg/mL (≈ 17.1 µM) in experiment [2]; more than 50 µg/mL in experiment [3]; 12.5 µg/mL (≈ 17.1 µM) in [4]; 25 µg/mL (≈ 34.2 µM) in experiment [5]; 12.5 µg/mL (≈ 17.1 µM) in experiment [6] (Pseudomonas #28, in vitro). The MIC in [8] turned out to be 25 µg/mL (≈ 34.2 µM); in experiment [9], 0.4 µg/mL (≈ 0.547 µM); in [10] it was 12.5 µg/mL (≈ 17.1 µM); in experiment [11], 6.3 µg/mL (≈ 8.61 µM); in experiment [12], 12.5 µg/mL (≈ 17.1 µM).
In the case of `CC(=O)N[C@@H](C)C(=O)Nc1ccc(-c2ccc(C(=O)N[C@@H](C(=O)NC3C(=O)N4C(C(=O)O)=C(CSc5nnnn5C)CSC34)c3ccccc3)c(=O)[nH]2)cc1` (stereo partly drawn) [Example 20, N-[6-[4-(N-Acetyl-L-alanylamino)phenyl]-1,2-dihydro-2-oxonicotinyl]7-[D-2-amino-2-phenylacetamido]-3-[[(1-methyl-1H-tetrazol-5-yl)thio]methyl]-3-cephem-4-carboxylic acid], the MIC in experiment [1] was found to be 6.3 µg/mL (≈ 8.01 µM); in experiment [2], 1.6 µg/mL (≈ 2.03 µM); in [3], 25 µg/mL (≈ 31.8 µM); in experiment [4], 12.5 µg/mL (≈ 15.9 µM); in experiment [5], 25 µg/mL (≈ 31.8 µM); in [6] (Pseudomonas #28, in vitro) it was 12.5 µg/mL (≈ 15.9 µM). Besides, the MIC in [8] came out at 6.3 µg/mL (≈ 8.01 µM); in [9], 1.6 µg/mL (≈ 2.03 µM); in experiment [10], 12.5 µg/mL (≈ 15.9 µM); in experiment [11] it was 1.6 µg/mL (≈ 2.03 µM); in experiment [12], 12.5 µg/mL (≈ 15.9 µM).
Regarding `CC(=O)N[C@H](C)C(=O)Nc1ccc(-c2ccc(C(=O)N[C@@H](C(=O)NC3C(=O)N4C(C(=O)O)=C(COC(C)=O)CSC34)c3ccccc3)c(=O)[nH]2)cc1` (stereo partly drawn) [Example 4, N-[6-[4-(N-Acetyl-D-alanylamino)phenyl]-1,2-dihydro-2-oxonicotinyl]-7-[D-2-amino-2-phenylacetamido]-3-acetoxymethyl-3-cephem-4-carboxylic acid], the MIC in experiment [1] came out at 12.5 µg/mL (≈ 17.1 µM); in [2], 6.3 µg/mL (≈ 8.62 µM); in [3] it was 50 µg/mL (≈ 68.4 µM); in [4], 12.5 µg/mL (≈ 17.1 µM); in experiment [5] it was 25 µg/mL (≈ 34.2 µM); in experiment [6] (Pseudomonas #28, in vitro), 6.3 µg/mL (≈ 8.62 µM). In addition, the MIC in experiment [8] is 12.5 µg/mL (≈ 17.1 µM); in experiment [9], 0.8 µg/mL (≈ 1.09 µM); in experiment [10], 6.3 µg/mL (≈ 8.62 µM); in experiment [11] it was 3.1 µg/mL (≈ 4.24 µM); in [12], 25 µg/mL (≈ 34.2 µM).
As to `CC(=O)N[C@@H](CCC(N)=O)C(=O)Nc1ccc(-c2ccc(C(=O)N[C@@H](C(=O)NC3C(=O)N4C(C(=O)O)=C(CSc5nnnn5CC(=O)O)CSC34)c3ccccc3)c(=O)[nH]2)cc1` (stereo partly drawn) [Example 21, N-[6-[4-(N-Acetyl-L-glutaminylamino)phenyl]-1,2-dihydro-2-oxonicotinyl]-7-[D-2-amino-2-phenylacetamido]-3-[[(1-carboxymethyl-1H-tetrazol-5-yl)thio]methyl]-3-cephem-4-carboxylic acid], the MIC in experiment [1] amounted to 6.3 µg/mL (≈ 7.1 µM); in experiment [2] it was 3.1 µg/mL (≈ 3.49 µM); in experiment [3], 12.5 µg/mL (≈ 14.1 µM); in experiment [4] it was 12.5 µg/mL (≈ 14.1 µM); in experiment [5] it was 50 µg/mL (≈ 56.3 µM); in [6] (Pseudomonas #28, in vitro), 6.3 µg/mL (≈ 7.1 µM). Besides, the MIC in [8] turned out to be 3.1 µg/mL (≈ 3.49 µM); in experiment [9], 6.3 µg/mL (≈ 7.1 µM); in experiment [10], 6.3 µg/mL (≈ 7.1 µM); in [11] it was 3.1 µg/mL (≈ 3.49 µM); in [12], 3.1 µg/mL (≈ 3.49 µM).
On to `CC(=O)NC(C)C(=O)Nc1ccc(-c2ccc(C(=O)N[C@@H](C(=O)NC3C(=O)N4C(C(=O)O)=C(COC(C)=O)CSC34)c3ccccc3)c(=O)[nH]2)cc1` (mixture of isomers) [Example 3, N-[6-[4-(N-Acetyl-DL-alanylamino)phenyl]-1,2-dihydro-2-oxonicotinyl]-7-[D-2-amino-2-phenylacetamido]-3-acetoxymethyl cephem-4-carboxylic acid], for which the MIC in experiment [1] came out at 25 µg/mL; in experiment [2], 6.3 µg/mL; in experiment [3] it was 25 µg/mL; in [4] it was 12.5 µg/mL; in experiment [5], 25 µg/mL; in experiment [6] (Pseudomonas #28, in vitro) it was 12.5 µg/mL. Also, the MIC in experiment [8] stood at 12.5 µg/mL; in experiment [9] it was 0.4 µg/mL; in [10], 6.3 µg/mL; in experiment [11] it was 3.1 µg/mL; in experiment [12], 25 µg/mL.
Consider `CC(=O)N[C@H](CCC(N)=O)C(=O)Nc1ccc(-c2ccc(C(=O)N[C@@H](C(=O)NC3C(=O)N4C(C(=O)O)=C(CSc5nnnn5CC(=O)O)CSC34)c3ccccc3)c(=O)[nH]2)cc1` (stereo partly drawn) [Example 37, N-[6-[4-(N-Acetyl-D-glutaminylamino)phenyl]-1,2-dihydro-2-oxonicotinyl]-7-[D-2-amino-2-phenylacetamido]-3-[[(1-carboxymethyl-1H-tetrazol-5-yl)thio]methyl]-3-cephem-4-carboxylic acid], for which the MIC in [1] is 6.3 µg/mL (≈ 7.1 µM); in experiment [2], 3.1 µg/mL (≈ 3.49 µM); in experiment [3] it was 12.5 µg/mL (≈ 14.1 µM); in experiment [4], 12.5 µg/mL (≈ 14.1 µM); in [5], more than 50 µg/mL; in experiment [6] (Pseudomonas #28, in vitro), 6.3 µg/mL (≈ 7.1 µM). The MIC is 6.3 µg/mL (≈ 7.1 µM) in experiment [8]; 6.3 µg/mL (≈ 7.1 µM) in experiment [9]; 12.5 µg/mL (≈ 14.1 µM) in experiment [10]; 0.8 µg/mL (≈ 0.901 µM) in experiment [11]; 3.1 µg/mL (≈ 3.49 µM) in [12].
